Results: ChEMBL document CHEMBL6103637, “Additional Bioactive Silvestrol Analogs from the Roots of Aglaia perviridis Collected in Vietnam” (J Nat Prod, 2025)

Key:
Assay type in all cases: functional, cell-based
[1] = test system: OVCAR-3; assay: Cytotoxicity against human OVCAR-3 cells assessed as inhibition of cell viability incubated for 72 hrs by CellTiter-blue cell viability assay; settings: OVCAR-3, 72 h
[2] = test system: HT-29; assay: Cytotoxicity against human HT-29 cells assessed as inhibition of cell viability incubated for 72 hrs by CellTiter-blue cell viability assay; settings: HT-29, 72 h
[3] = test system: MDA-MB-231; assay: Cytotoxicity against human MDA-MB-231 cells assessed as inhibition of cell viability incubated for 72 hrs by CellTiter-blue cell viability assay; settings: MDA-MB-231, 72 h
[4] = test system: MDA-MB-435; assay: Cytotoxicity against human MDA-MB-435 cells assessed as inhibition of cell viability incubated for 72 hrs by CellTiter-blue cell viability assay; settings: MDA-MB-435, 72 h

SMILES | IC50 [1] [nM] | IC50 [2] [nM] | IC50 [3] [nM] | IC50 [4] [nM]
COC(=O)[C@H]1[C@@H](O)[C@@]2(O)c3c(OC)cc(O[C@@H]4O[C@@H]([C@H](O)CO)CO[C@@H]4OC)cc3O[C@@]2(c2ccc(OC)cc2)[C@@H]1c1ccccc1 | 210 | 370 | 240 | 250
COC(=O)[C@H]1[C@@H](O)[C@@]2(O)c3c(OC)cc(O[C@@H]4O[C@@H]([C@@H](O)CO)CO[C@@H]4OC)cc3O[C@@]2(c2ccc(OC)cc2)[C@@H]1c1ccccc1 | 210 | 450 | 210 | 250
COC(=O)[C@H]1[C@@H](O)[C@@]2(O)c3c(OC)cc(O[C@@H]4O[C@@H]([C@H]5COC(C)(C)O5)CO[C@H]4OC)cc3O[C@@]2(c2ccc(OC)cc2)[C@@H]1c1ccccc1 | 37 | 20 | 260 | 31
COC(=O)[C@H]1[C@@H](O)[C@@]2(O)c3c(OC)cc(O[C@@H]4O[C@@H]([C@@H]5COC(C)(C)O5)CO[C@H]4OC)cc3O[C@@]2(c2ccc(OC)cc2)[C@@H]1c1ccccc1 | 38 | 37 | 20 | 26
COC(=O)[C@H]1[C@@H](O)[C@@]2(O)c3c(OC)cc(O[C@@H]4O[C@@H]([C@@H](O)CO)CO[C@H]4OC)cc3O[C@@]2(c2ccc(OC)cc2)[C@@H]1c1ccccc1 [2'-EPISILVESTROL] | 2 | 3 | 2 | 2
CC(=O)O[C@H]1C(=O)[C@@]2(C)[C@H]([C@H](OC(=O)c3ccccc3)[C@]3(O)C[C@H](OC(=O)[C@H](O)[C@@H](NC(=O)c4ccccc4)c4ccccc4)C(C)=C1C3(C)C)[C@]1(OC(C)=O)CO[C@@H]1C[C@@H]2O [PACLITAXEL] | 12 | – | – | 5
COC(=O)[C@H]1[C@@H](O)[C@@]2(O)c3c(OC)cc(O[C@@H]4O[C@@H]([C@H](O)CO)CO[C@H]4OC)cc3O[C@@]2(c2ccc(OC)cc2)[C@@H]1c1ccccc1 [SILVESTROL] | 2 | 30 | 2 | 2
